Experimental data from patent publication US10557118B2, “Compositions and methods for prevention or treatment of neoplastic disease in a mammalian subject” (The Government of the USA, as represented by the Secretary, …, priority 2006, dated 2020).

Key:
[1] = test system: RCC reactive SAUJ T-cell clone; assay: ELISA of IFN-gamma production by RCC reactive CTL co-cultured with peptide-pulsed COS7-A11 cells; type: cell-based, human
Protocol: COS7-A11 cells were pulsed with varying concentrations of each peptide then screened for their ability to induce IFN-gamma production by RCC reactive CTL. The 10 mer Pep-A104-K133 (ATFLGSLTWK) (SEQ ID NO: 1) induced dose dependent IFN-gamma production first evident in the 1 nM concentration range consistent with this peptide being the antigenic HLA-A11 restricted antigen recognized by the RCC reactive SAUJ T-cell clone.
Cultured T-cell lines or T cell clones were added to target cells in round-bottom 96-well plates. After 24 hours co culture at 37° C., 50 μL of supernatants was collected to measure IFN-g or GM-CSF secretion by ELISA (ENDOGEN, Woburn, Mass.) in duplicate assays. The concentration of reagents and the ELISA procedure recommended by ENDOGEN was followed without deviation. Absorbance was detected at 450 nm using an ELISA reader (VICTOR3 Multilabel counter; Perkin Elmer, Wellesley, Mass.) and data were calculated based on the standard curve generated from commercial recombinant human IFN-g or GM-CSF standards (ENDOGEN).
A total of 8 peptides (three 9-mers and five 10-mers) from the common sequence of CT-RCC 8 and CT-RCC 9 were synthesized and purchased from Genemed Synthesis, Inc. The identity and purity of each of the peptides were confirmed by mass spectrometer and high-performance liquid chromatography analysis. […]

[2] = test system: HLA A-11; assay: Binding of epitope to HLA A-11; parameters: species or system human; details: compared with the other epitopes

Sequence: ATFLGSLTWK [Pep-A104-K133, HLA-A11-restricted 10-mer peptide from the common region of CT-RCC 8 and CT-RCC 9]
- concentration range at which dose dependent IFN-gamma production is first evident ([1]; COS7-A11 cells pulsed with varying peptide concentrations (0.1 to 10000 nM), SAUJ-CTL clone BZ-4): ~1 nM
- level of IFN-γ secretion by human T cells ([1]; compared with the other epitopes): highest level of IFN-γ secretion
- level of binding the HLA A-11 [2]: highest level of binding
